Values quoted from earlier work in patent publication US20110060040A1, “USES OF ACYLOXYALKYL CARBAMATE PRODRUGS OF TRANEXAMIC ACID” (XenoPort, Inc., priority 2009, published 2011).

How the values were obtained:
[1] = human patients, prodrug given orally
[2] = patients undergoing total knee arthroplasty
[3] = cardiopulmonary bypass surgery, prophylactic administration

| oral bioavailability of tranexamic acid [1] | excretion (in vivo) | fraction of administered tranexamic acid metabolized (in vivo) | volume of distribution (in vivo) [L] | oral bioavailability (oral) | SMILES | reduction of total blood loss [2] | reduction of post-operative bleeding [3] |
| --- | --- | --- | --- | --- | --- | --- | --- |
| markedly improved | – | – | – | – | CCOC(=O)OC(C)OC(=O)[C@H]1CC[C@H](CN)CC1 (relative stereo) [Kabi 2161, 1-(ethoxycarbonyl)oxyethyl trans-4-(aminomethyl)-cyclohexanecarboxylate] | – | – |
| – | most is excreted unchanged by the kidney | Only a small fraction | 9 to 12 | ca. 30% | NC[C@H]1CC[C@H](C(=O)O)CC1 [tranexamic acid, trans-4-(aminomethyl)-cyclohexanecarboxylic acid] | up to 50% | 30-40% |
